From patent US9844546B2, “Antibody against human HIF hydroxylase” (OXFORD UNIVERSITY INNOVATION LIMITED, priority 2001, dated 2017)
Where two headings read alike, the source gives them in different places.

Tests used:
[1] = system: HIF-α prolyl-hydroxylase (HIF-PH) of cell extract; test: Modifying activity (HIF-PH) of cell extract on HIF substrate (Gal/HIF-1α549-582/VP16 or 19:WT), pVHL capture assay; assay type: biochemical, mammalian
Procedure: The unlabelled HIF-1α substrate was immunopurified on beads, washed, and aliquots incubated under different test conditions in buffer or cell extract. After further washing, the beads were assayed for ability to interact with 35-S labelled pVHL IVTT (21) which was then visualised by fluorography.
The capture of labelled pVHL by different HIF substrates was monitored after exposure to various test conditions.
We went on to test a series of 2-oxoglutarate analogues which act as competitive inhibitors of this class of enzyme (29) for ability to inhibit HIF-PH as assessed by the ability of cell extracts to modify either HIF polypeptide (19:WT) or a HIF fusion protein (Gal/HIF-1α549-582/VP16) so as to promote pVHL capture. […] In one such experiment the effect of N-oxalylglycine on pVHL capture by a biotinylated HIF polypeptides as substrate was monitored. The WT:19 and 19:Pro564Hyp polypeptides described above were used as substrates. […] The effect of dimethyl-oxalyglycine on HIF-1α expression was also studied. HIF-1α immunoblot analysis of extracts of Hep3B and U2OS cells exposed to dimethyl-oxalylgylcine (0, 0.1 or 1.0 mM) for 6 hours was carried out. […]

[2] = system: HIF hydroxylase (HPH activity); test: HIF hydroxylase (HPH) inhibition, statements of the description; assay type: biochemical
clavaminate synthase = test: Clavaminate synthase inhibition under standard assay conditions; assay type: biochemical, Streptomyces clavligerus
Text: These are commonly methyl or ethyl esters although others are possible.

[3] = target: T1, HIF-1/VHL-1 interaction promoting activity of worm extract (Caenorhabditis elegans, UniProt G5EBV0); test: Worm extract modification of C. elegans HIF-1, HA.VHL-1 interaction assay; assay type: biochemical; details: antagonized by 5 mM 2-OG
T1 construct: from tissue; host or cells: whole-worm homogenate in hypotonic extraction buffer
T1 sequence (G5EBV0 whole entry): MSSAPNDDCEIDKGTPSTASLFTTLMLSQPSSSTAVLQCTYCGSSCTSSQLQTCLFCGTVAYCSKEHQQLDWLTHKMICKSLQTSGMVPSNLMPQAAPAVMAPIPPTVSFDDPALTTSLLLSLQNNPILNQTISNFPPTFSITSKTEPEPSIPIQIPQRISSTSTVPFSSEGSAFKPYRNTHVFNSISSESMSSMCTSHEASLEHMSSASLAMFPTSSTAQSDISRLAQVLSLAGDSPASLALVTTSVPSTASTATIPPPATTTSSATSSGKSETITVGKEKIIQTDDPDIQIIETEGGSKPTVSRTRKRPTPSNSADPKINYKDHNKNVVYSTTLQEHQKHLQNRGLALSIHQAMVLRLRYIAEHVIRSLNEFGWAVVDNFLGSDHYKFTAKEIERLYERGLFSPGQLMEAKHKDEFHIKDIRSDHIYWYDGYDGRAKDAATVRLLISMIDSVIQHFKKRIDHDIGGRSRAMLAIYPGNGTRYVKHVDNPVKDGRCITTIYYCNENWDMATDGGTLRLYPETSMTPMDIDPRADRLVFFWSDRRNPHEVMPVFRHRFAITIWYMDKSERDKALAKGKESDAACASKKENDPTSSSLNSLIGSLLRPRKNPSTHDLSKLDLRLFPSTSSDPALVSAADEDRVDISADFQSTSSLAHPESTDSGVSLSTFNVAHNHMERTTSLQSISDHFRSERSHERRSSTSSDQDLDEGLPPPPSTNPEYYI
Procedure: Assays for interaction between recombinant VHL and HIF polypeptides conformed to the following experimental design. Recombinant VHL and HIF polypeptides were produced separately in vitro. The HIF polypeptide was then pre-incubated with extract or a recombinant enzyme as described below, then mixed with VHL and incubated in EBC buffer (50 mM Tris pH 7.5, 150 mM NaCl, 0.5% v/v Igepal, 0.5 mM EDTA) at 4° C. for 1 hour, before immunoprecipitation with anti HA antibodies (for HA tagged VHL) or anti Gal antibodies (for Gal4HIF fusions) and analysis by PAGE (Jaakkola et al. (2001) supra).
Preincubation of C. elegans HIF-1 with worm extract or recombinant EGL-9 was for 30 min at 25° C. Preincubation of mammalian HIF-α polypeptides with cell extract or recombinant enzymes was at 37° C. for 10-30 min unless otherwise stated. For assays of recombinant enzymes, 2-oxoglutarate (2 mM), iron (100 μM), and ascorbate (2 mM) were added to the reaction buffer unless otherwise indicated. Reactions performed in hypoxia were in the stated atmospheric oxygen concentration (balance nitrogen) obtained using a controlled environment Invivo2 400 hypoxia work-station (Ruskinn Technologies) and buffers pre-equilibrated with the appropriate atmosphere. Reactions (50 μl) were performed in open Eppendorf tubes with mixing and stopped by the addition of 20 volumes desferrioxamine (100 μM}. […]

U2OS and Hep3B cells = test: HRE-dependent luciferase reporter assay after transient transfection of NODD/CODD plasmids; assay type: cell-based, human; details: normoxic conditions, 24 hours
Text: Since normoxic HIFα degradation is saturable ^17 and depends on sub-regions within the ODD we tested whether peptides encoding the HIF-1α amino terminal ODD (NODD) and carboxy terminal ODD (CODD) ^21 could affect HIF activity as measured by hypoxia response element (HRE)-dependent reporter gene expression. Briefly, Degradation is prevented by the NODD and CODD polypeptides competing for prolyl hydroxylation and/or VHL binding, thereby blocking subsequent ubiquitination. We constructed plasmids encoding NODD (HIF-1-α aa 343-417) or CODD (HIF-1-α aa 549-582) linked to nuclear localisation sequences and a c-myc epitope tag. These plasmids were transiently co-transfected into U2OS and Hep3B cells with an HRE-dependent luciferase reporter plasmid. […]
For reporter gene assays DNA fragments encoding HIF-1α amino acids 343-417, 380-417, 390-417, 390-410, 343-400, 530-95, 530-82, 549-82, 556-74 and 530-62 were generated by PCR using oligonucleotides containing 5′ SacII or 3′ AscI sites and inserted into a pCMV/myc/nuc (Invitrogen) derivative bearing these sites in frame with the NLS and epitope tag. […] To generate tet-operator dependent plasmids the open reading frames from the aa343-417 and aa549-82 constructs were subcloned into pUHD 10 ^34. […]

VHL E3 ubiquitin ligase = target: T2, VHL E3 ubiquitin ligase (Homo sapiens, UniProt P40337); test: VHL E3 interaction assay with 35S-labelled tat-ODD IVTT products; assay type: binding; details: after modification by cell extracts
T2 construct: expressed in transfected cells; host or cells: 786-0 cells stably transfected with pcDNA3 VHL.HA (whole extract, anti-HA immunoprecipitation)
T2 sequence (P40337 whole entry): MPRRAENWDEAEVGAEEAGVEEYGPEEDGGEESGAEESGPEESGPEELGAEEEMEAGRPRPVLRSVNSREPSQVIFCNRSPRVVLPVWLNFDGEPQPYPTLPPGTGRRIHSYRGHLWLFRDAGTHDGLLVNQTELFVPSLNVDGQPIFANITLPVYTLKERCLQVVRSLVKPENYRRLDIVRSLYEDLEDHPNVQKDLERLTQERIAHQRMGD
T2 sequence (Q15370 whole entry partner): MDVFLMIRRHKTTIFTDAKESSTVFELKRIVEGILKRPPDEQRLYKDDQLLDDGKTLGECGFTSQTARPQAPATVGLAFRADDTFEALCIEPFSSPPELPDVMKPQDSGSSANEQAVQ
T2 sequence (Q15369 whole entry partner): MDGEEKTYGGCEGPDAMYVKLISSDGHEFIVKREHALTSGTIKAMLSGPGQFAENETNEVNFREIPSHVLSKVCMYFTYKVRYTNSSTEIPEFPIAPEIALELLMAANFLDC
T2 sequence (Q13617 whole entry partner): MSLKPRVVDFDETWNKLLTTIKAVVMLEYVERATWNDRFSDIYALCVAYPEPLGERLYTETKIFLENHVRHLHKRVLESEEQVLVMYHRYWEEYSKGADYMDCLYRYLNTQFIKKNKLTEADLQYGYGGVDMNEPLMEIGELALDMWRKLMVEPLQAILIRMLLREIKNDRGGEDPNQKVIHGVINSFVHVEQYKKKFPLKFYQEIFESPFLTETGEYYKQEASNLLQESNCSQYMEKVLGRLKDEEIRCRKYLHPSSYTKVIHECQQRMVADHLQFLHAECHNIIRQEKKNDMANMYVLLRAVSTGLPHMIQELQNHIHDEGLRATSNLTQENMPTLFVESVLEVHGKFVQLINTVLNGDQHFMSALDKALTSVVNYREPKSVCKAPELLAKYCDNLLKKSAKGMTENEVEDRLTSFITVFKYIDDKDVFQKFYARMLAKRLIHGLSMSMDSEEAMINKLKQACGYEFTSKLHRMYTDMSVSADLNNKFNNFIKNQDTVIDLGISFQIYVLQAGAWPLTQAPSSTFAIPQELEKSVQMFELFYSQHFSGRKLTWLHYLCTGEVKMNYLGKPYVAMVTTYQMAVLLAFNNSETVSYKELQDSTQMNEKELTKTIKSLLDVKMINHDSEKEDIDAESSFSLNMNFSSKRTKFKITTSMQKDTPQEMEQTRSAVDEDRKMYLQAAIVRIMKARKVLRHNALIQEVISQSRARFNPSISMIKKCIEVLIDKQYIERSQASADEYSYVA
T2 sequence (P62877 whole entry partner): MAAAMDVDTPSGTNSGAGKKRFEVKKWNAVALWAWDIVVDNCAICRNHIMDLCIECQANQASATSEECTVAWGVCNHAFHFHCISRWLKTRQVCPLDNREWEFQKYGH
Text: Concordant with the ubiquitination assays discussed above NODD (HIF-1α 343-417) and CODD (HIF-1α 549-582) polypeptides, but not their corresponding proline mutants (HIF-1α 343-417/P402A and HIF-1α 549-582/P564G), bound to VHL E3 ubiquitin ligase after modification by cell extracts. The ^35S-methionine labelled recombinant polypeptides therefore interacted with VHL, supporting the results of the ubiquitination experiments discussed above. The interaction was enhanced by the presence of cell extracts which promote hydroxylation of the prolines at positions 402 and 564 ^19. In contrast, no binding occurred using peptides in which prolines were mutated.
For VHL E3 interaction assays ^35S-methionine labelled HIF-1a substrates were prepared by transcription/translation using TnT7 rabbit reticulocyte lysate (Promega). 100 μM DFO was added to the reaction to suppress prolyl hydroxylase activity of the reticulocyte lysate. Substrate modification was achieved by incubation of HIF-1α translate with RCC4 cell lysate in the presence of ferrous chloride (100 μM). Interaction with VHL E3 was analysed as described previously ^21.

U2OS cells = U2OS cells stably transfected with doxycycline-inducible NODD or CODD; assay type: cell-based, human; details: doxycycline 0.2-3.2 μg/ml, peaking after 48 hours
Procedure: To explore further the therapeutic potential of NODD and CODD polypeptides to activate endogenous HIF we stably transfected U2OS cells with doxycycline-inducible NODD (doxNODD) and CODD constructs (doxCODD) encoding identical sequences to those used for transient transfections.
Cells stably transfected with NODD or CODD controlled by the tetracycline-inducible system were exposed to doxycycline. Cell extracts were prepared 0, 16, 24 and 48 hours after exposure to doxycycline. The extracts of doxNODD (HIF-1α aa343-417), doxCODD (HIF-1α aa549-82) and control cells (empty vector) were then immunoblotted for HIF-1α protein. Increased HIF-1α signals were detected from 16-48 hours following doxycycline administration in doxNODD and doxCODD cells but not in empty vector cells. Levels of HIF-1α induced by hypoxia were also measured for comparison. The endogenous HIF-1α induction was doxycycline dose (0.2-3.2 μg/ml) and time dependent, peaking after 48 hours. Maximal levels were about 20% and about 70% of HIF-1α levels seen following hypoxic or DFO treatment of the doxNODD and doxCODD cells respectively. […]
Stably transfected cell lines were generated by transfecting U2OS cells bearing the reverse tetracycline responsive transactivator ^34 and the tetKRAB silencer construct ^36 with pUHD/HIF plasmids. Following selection in G418 (1 mg/ml) individual colonies were picked. DoxNODD (F21) and doxCODD (myc19) clones expressed pUHD/HIF-1aa343-417/3NLS/c-myc and pUHD/HIF-1α aa549-82/3NLS/c-myc respectively. […]
Cell extracts were prepared in buffer (8M urea, 10% glycerol, 1% SDS, 5 mM DTT, 10 mM Tris/pH 6.8), separated by SDS-PAGE and transferred to Immobilon-P membrane (Millipore). Primary antibodies against HIF-1α, c-myc tag and HA tag were from Transduction Laboratories, Innogenex and Roche Molecular respectively. […]

O=C(O)CNC(=O)CCS [N-(Mercaptopropionyl)glycine]
pVHL binding after treatment with cell extract in the presence of inhibitor ([1]; 1 mM): strong binding of pVHL
pVHL binding after treatment with cell extract in the presence of inhibitor ([1]; 5 mM): reduced the amount of pVHL binding
inhibition of HIF hydroxylase / HPH [2]: inhibitors of HPH
inhibition of clavaminate synthase (clavaminate synthase): not an inhibitor

C[C@H](NC(=O)C(=O)O)C(=O)O [N-oxalyl-2S-alanine]
inhibitory activity on HIF-1α modification, comparison of enantiomers ([1]; 0-2000 μM, RCC4 cell extract): higher inhibitory activity
inhibition of HIF hydroxylase / HPH [2]: act as inhibitors
inhibition of HIF hydroxylase / HPH ([2]; listed as (S) oxaloalanine): preferred inhibitor
inhibition of worm extract activity promoting HIF-1/HA.VHL-1 interaction [3]: strongly inhibited activity

B1: NODD: HIF-1α amino terminal ODD polypeptide (aa 343-417) with nuclear localisation sequences and c-myc tag, plasmid expressed (protein, UniProt Q16665 343-417, looked up, fragment)
chain: SGIIQHDLIFSLQQTECVLKPVESSDMKMTQLFTKVESEDTSSLFDKLKKEPDALTLLAPAAGDTIISLDFGSND
modifications: NLS and c-myc tag
HRE-dependent relative luciferase activity (U2OS and Hep3B cells): increased relative luciferase activity
binding to VHL E3 ubiquitin ligase (VHL E3 ubiquitin ligase): bound
Maximal HIF-1α level relative to hypoxic or DFO treatment (U2OS cells): about 20%
